From patent US20120277312A1, “Ethylgallate and Related Compounds as a Treatment for Sepsis and Septic Shock” (priority 2009, published 2012) come the findings set out here.

“Also recorded” adds a separate entry of the source.

One test addresses T1, catalase (Homo sapiens, UniProt P04040).
T1 sequence (P04040 2-527 limits assumed): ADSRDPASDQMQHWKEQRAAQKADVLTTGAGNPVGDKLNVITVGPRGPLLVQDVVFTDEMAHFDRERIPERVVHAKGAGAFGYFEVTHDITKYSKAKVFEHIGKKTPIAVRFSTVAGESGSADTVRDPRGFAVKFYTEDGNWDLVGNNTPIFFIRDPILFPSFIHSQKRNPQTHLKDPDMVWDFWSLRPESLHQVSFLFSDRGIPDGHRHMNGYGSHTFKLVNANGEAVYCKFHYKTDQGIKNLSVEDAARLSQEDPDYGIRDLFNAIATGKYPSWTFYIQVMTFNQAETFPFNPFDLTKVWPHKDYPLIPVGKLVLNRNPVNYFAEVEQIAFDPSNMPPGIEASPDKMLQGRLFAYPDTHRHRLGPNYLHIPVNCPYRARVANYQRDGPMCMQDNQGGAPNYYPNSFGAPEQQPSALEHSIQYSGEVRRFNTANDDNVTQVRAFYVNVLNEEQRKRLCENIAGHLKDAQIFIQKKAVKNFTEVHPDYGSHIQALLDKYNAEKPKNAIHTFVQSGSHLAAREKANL
Kind of test: Conversion of catalase to compound I (wave-scan spectroscopy). The class given is biochemical.
Settings: not given
From the text: (§1) This generation appears to involve the mechanism described by Wentworth et al in which proteins can utilize water as a catalyst to generate H2O2 (12) Once formed by lysozyme, H2O2 then reacts with intrinsic catalase to form a species of catalase termed Compound I (2) Compound I then acts to generate cyclic-guanosine monophosphate which in turn causes vasodilation. […] These as well as other mechanisms may account for the efficacy of ethyl-gallate treatment in septic shock.
`O=C(O)c1cc(O)c(O)c(O)c1` [gallic acid, reference compound]: the “inhibition of degradation of catalase to compound I” value is on record as “can also prevent”.

A further test concerns lysozyme's vasodilatory effect in canine carotid artery preparation. Kind of test: Lysozyme-induced vasodilation in canine carotid artery preparation (in-vitro). The note with it: canine carotid artery preparation, in-vitro. On the procedure:
Lysozyme produces vasodilation by intrinsically generating hydrogen peroxide (H2O2) that leads to activation of signaling pathways resulting in these hemodynamic effects (7).
Ethyl gallate is added to food as an antioxidant. It is the ethyl ester of gallic acid. Though found naturally in a variety of plant sources including walnuts (8), ethyl gallate is produced from gallic acid and ethanol (9). […] It is of note that if a substance could not inhibit lysozyme's effect in-vitro, then it would be worthless to pursue an in-vivo study.
Take `CC(=O)N[C@@H](CS)C(=O)O` [N-acetylcyteine]: the “block of lysozyme's vasodilatory effect” value is reported as “failed to block”.

Turning to `CC(/C=C/C=C(\C)C(=O)O[C@@H]1O[C@H](CO[C@@H]2O[C@H](CO)[C@@H](O)[C@H](O)[C@H]2O)[C@@H](O)[C@H](O)[C@H]1O)=C\C=C\C=C(C)\C=C\C=C(/C)C(=O)O[C@@H]1O[C@H](CO[C@@H]2O[C@H](CO)[C@@H](O)[C@H](O)[C@H]2O)[C@@H](O)[C@H](O)[C@H]1O` [crocin], the “block of lysozyme's vasodilatory effect” value is recorded as “failed to block”.

In the case of `COc1cc(/C=C/C(=O)CC(=O)/C=C/c2ccc(O)c(OC)c2)ccc1O` [curcumin], the “block of lysozyme's vasodilatory effect” value was “failed to block”.

On to `O=c1oc2c(O)c(O)cc3c(=O)oc4c(O)c(O)cc1c4c23` [ellagic acid], for which the “block of lysozyme's vasodilatory effect” value was “failed to block”.

Regarding `O=C(O[C@@H]1Cc2c(O)cc(O)cc2O[C@@H]1c1ccc(O)c(O)c1)c1cc(O)c(O)c(O)c1` [epicathechin gallate], the “block of lysozyme's vasodilatory effect” value is given as “failed to block”.

As for `O=C(O[C@@H]1Cc2c(O)cc(O)cc2O[C@@H]1c1cc(O)c(O)c(O)c1)c1cc(O)c(O)c(O)c1` [epigalloccatechin gallate], the “block of lysozyme's vasodilatory effect” value is reported as “failed to block”.

Take `CCOC(=O)c1ccc(O)c(O)c1` [ethyl 3,4-dihydroxybenzoate]: the “block of lysozyme's vasodilatory effect” value is reported as “blocked”.

With `O=C(O)c1cc(O)c(O)c(O)c1` [gallic acid, reference compound], the “block of lysozyme's vasodilatory effect” value is listed as “could not block; also recorded: failed to block”.

Take `COc1ccccc1O` [guaicol]: the “block of lysozyme's vasodilatory effect” value is “failed to block”.

On to `C=C(C)[C@H]1CC=C(C)CC1` [limonene], for which the “block of lysozyme's vasodilatory effect” value was “failed to block”.

Consider `O=c1cc(-c2ccc(O)c(O)c2)oc2cc(O)cc(O)c12` [luteolin], for which the “block of lysozyme's vasodilatory effect” value is on record as “failed to block”.

As to `OC[C@@H](O)[C@@H](O)[C@H](O)[C@H](O)CO` [mannitol], the “block of lysozyme's vasodilatory effect” value is on record as “worked”.

With `COC(=O)c1cc(O)c(O)c(O)c1` [methyl gallate], the “block of lysozyme's vasodilatory effect” value is on record as “blocked”.

In the case of `CCCOC(=O)c1cc(O)c(O)c(O)c1` [propyl gallate], the “block of lysozyme's vasodilatory effect” value is “failed to block”.

On to `O.O.O=c1c(O)c(-c2ccc(O)c(O)c2)oc2cc(O)cc(O)c12` [quercetin dihydrate], for which the “block of lysozyme's vasodilatory effect” value is “failed to block”.

As for `N[C@@H](CCC(=O)N[C@@H](CS)C(=O)NCC(=O)O)C(=O)O` [reduced glutathione], the “block of lysozyme's vasodilatory effect” value was “failed to block”.

With `O=C1O[C@H]([C@@H](O)CO)C([O-])=C1O.[Na+]` [sodium ascorbate], the “block of lysozyme's vasodilatory effect” value is “failed to block”.

On to `O=C([O-])c1ccccc1.[Na+]` [sodium benzoate], for which the “block of lysozyme's vasodilatory effect” value is on record as “failed to block”.

With catechin gallate, the “block of lysozyme's vasodilatory effect” value is “failed to block”.

Another test concerns POX-induced vasodilation in carotid and superior mesenteric arterial preparations. Kind of test: Peroxacetic acid (POX)-induced vasodilation in carotid and superior mesenteric arterial preparations. On the set-up: species or system canine.
Settings: not given
The text has this: POX is a hydroperoxide (slightly different from the molecule of hydrogen peroxide) that also may be released in septic shock by macrophages and inflammatory cells. […] However, the pathway by which POX caused vasodilation is much different than that caused by lysozyme. […] To some extent, therefore, the improvement in hemodynamics previously observed when ethyl-gallate was infused in our in-vivo study could have also been related to ethyl-gallate's inhibition of the POX pathway in addition to ethyl-gallate's inhibitory-effect on lysozyme mediated pathways.
The only similarity found between lysozyme and POX is that POX's mechanism of action is also independent of the endothelium and nitric oxide formation, since we could not prevent POX's vasodilatory effect by removal of the endothelium or by nitric oxide inhibition. In contrast to lysozyme, POX seems to cause vasodilation is by activation of an enzyme in the vascular tissue called prostaglandin H synthase (PHS). PHS has an important mechanism of action, in that after activation by hydroperoxides (such as POX), it can in turn activate the cyclooxygenase pathway leading to vasodilation.
Consider `[Ba]` [barium], for which the “inhibition of vasodilation caused by POX” value is “could be prevented”.

In the case of `COc1ccc2c(c1)c(CC(=O)O)c(C)n2C(=O)c1ccc(Cl)cc1` [indomethacin], the “inhibition of vasodilation caused by POX” value was “could be inhibited”.

Consider `[K+]` [potassium], for which the “inhibition of vasodilation caused by POX” value was “could be prevented”.

The target of a further test is T2, lysozyme (Homo sapiens, UniProt P61626).
T2 sequence (P61626 19-148): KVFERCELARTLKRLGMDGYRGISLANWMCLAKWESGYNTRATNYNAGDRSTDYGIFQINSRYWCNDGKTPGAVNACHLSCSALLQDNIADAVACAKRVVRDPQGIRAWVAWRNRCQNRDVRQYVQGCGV
Briefly: Lysozyme-induced hydrogen peroxide generation measured by Ultra Amplex Red assay. The class given is biochemical. Conditions: 6.5×10^−6 mol/L lysozyme.
For `C[S+](C)[O-]` [DMSO], the “inhibition of lysozyme-induced hydrogen peroxide generation” value is listed as “do not inhibit”.

For the molecule `OC[C@@H](O)[C@@H](O)[C@H](O)[C@H](O)CO` [mannitol], the “inhibition of lysozyme-induced hydrogen peroxide generation” value is “do not inhibit”.

Test system in the next test: not listed separately
Kind of test: In-vivo study of mannitol (not further described).
Settings: not given
The method, then: Ethyl gallate is added to food as an antioxidant. It is the ethyl ester of gallic acid. Though found naturally in a variety of plant sources including walnuts (8), ethyl gallate is produced from gallic acid and ethanol (9). […] Thus, ethyl gallate, methyl gallate, and ethyl 3,4 dihydroxybenzoate has unique properties for the treatment of septic shock. It is of note that if a substance could not inhibit lysozyme's effect in-vitro, then it would be worthless to pursue an in-vivo study.
As to `OC[C@@H](O)[C@@H](O)[C@H](O)[C@H](O)CO` [mannitol], the effect in-vivo entry is “did not have a positive effect”.

Test system in a further test: not listed separately
Kind of test: Hydrogen peroxide scavenging (Amplex Red assay, electrochemical techniques, glucosidase/glucose assay). The class given is biochemical. The note with it: multiple methodologies.
Excerpt: as §1
Regarding `O=C(O)c1cc(O)c(O)c(O)c1` [gallic acid, reference compound], the “scavenging of hydrogen peroxide” value was “can scavenge”.
